Columns and labels:
GP2D cells = assay: Cell proliferation assay (CellTiter-Glo), K-Ras G12D cells; format: cell-based; conditions: bins given, read-out: Inhibition of GP2D Cells (IC50)
Description: ASPC-1 (ATCC CRL-1682), Panc-10.05 (ATCC CRL-2547), A427, and GP2D (Sigma 95090714) cell lines comprise a G12D mutation and can be used to assess Ras cellular signaling in vitro, e.g., in response to the compounds herein. […] ASPC-1 culture medium is prepared with RPMI-1640 and 10% heat-inactivated FBS. Panc-10.05 culture medium is prepared with RPMI-1640, 10 Units/ml human recombinant insulin, and 10% FBS. A427 cell culture is prepared with RPMI-1640 and 10% heat-inactivated FBS. GP2D culture medium is prepared with DMEM with 2 mM glutamine and 10% heat-inactivated FBS. A CellTiter-Glo (CTG) luminescent based assay (Promega) is used to assess growth of the cells, as a measurement of the ability of the compounds herein to inhibit Ras signaling in the cells. The cells (e.g., 800 per well) are seeded in their respective culture medium in standard tissue culture-treated 384-well format plates (Falcon #08-772-116) or ultra-low attachment surface 384-well format plates (S-Bio #MS-9384UZ). The day after plating, cells are treated with a dilution series (e.g., a 9 point 3-fold dilution series) of the compounds herein (e.g., approximately 40 μl final volume per well). Cell viability can be monitored (e.g., approximately 5 days later) according to the manufacturer's recommended instructions, where the CellTiter-Glo reagent is added (e.g., approximately 10 μl), vigorously mixed, covered, and placed on a plate shaker (e.g., approximately for 20 min) to ensure sufficient cell lysis prior to assessment of luminescent signal. The IC50 values are determined using the four parameter fit. The resulting IC50 value is a measurement of the ability of the compounds herein to reduce cell growth of Ras-driven cells (e.g., tumor cell lines) in vitro and/or in vivo.

K-Ras G12S = biological target: T1, K-Ras G12S (Homo sapiens, UniProt P01116, G12S); assay: HTRF assay, K-Ras G12S / SOS1 interaction; format: biochemical; conditions: IC50 against K-Ras G12D divided by IC50 against K-Ras G12S
T1 construct: made in house; host or cells: E. coli, e.g. BL21 (DE3)
Description: This assay can be also used to assess a selective inhibition or reduction of signaling output of a mutant Ras protein relative to a wildtype, or relative to a different mutant Ras protein. For example, the equilibrium interaction of wildtype Kras or K-Ras mutant (e.g., wildtype or a mutant thereof including those mentioned in Example 6) with SOS1 (e.g., hSOS1) can be assessed as a proxy or an indication for a subject compound's ability to bind and inhibit Ras protein. HTRF assay detects from (i) a fluorescence resonance energy transfer (FRET) donor (e.g., antiGST-Europium) that is bound to GST-tagged K-Ras mutant to (ii) a FRET acceptor (e.g., anti-6His -XL665) bound to a His -tagged hSOS1.
The assay buffer can contain ˜5 mM HEPES pH 7.4, ˜150 mM NaCl, ˜1 mM DTT, 0.05% BSA and 0.0025% (v/v) Igepal. A Ras working solution is prepared in an assay buffer containing typically a suitable amount of the protein construct (e.g., GST-tagged K-Ras mutant) and the FRET donor (e.g., antiGST-Eu(K) from Cisbio, France). A SOS1 working solution is prepared in an assay buffer containing suitable amount of the protein construct (e.g., His -hSOS1) and the FRET acceptor (e.g., anti-6His -XL665 from Cisbio, France). A suitable amount of the protein construct will depend on the range of activity or range of IC50 values being detected or under investigation. For detecting IC50 within a range of 500 nM, the protein constructs of the same range of molarity can be utilized.
A fixed volume of DMSO with or without test compound is transferred into a 384-well plate. Ras working solution is added to all wells of the test plate. SOS1 working solution is added to all wells except for those that are subsequently filled the inhibitor control solution. Upon incubation for about 10 minutes or longer, the fluorescence is measured with a M1000Pro plate reader (Tecan) using HTRF detection (excitation 337 nm, emission 1: 620 nm, emission 2: 665 nm). Compounds are tested in duplicates at different concentrations (for example, 10 μM, 2.5 μM, 0.63 μM, 0.16 μM, 0.04 μM, 0.01 μM test compound). The ratiometric data (i.e., emission 2 divided by emission 1) is used to calculate IC50 values against Ras using GraphPad Prism (GraphPad software). Following this general procedure, samples were tested with or without a subject compound disclosed herein including compounds exemplified in Table 3 to assess their abilities to inhibit K-Ras G12S relative to another mutant (e.g., K-Ras G12D). Signaling output measured in terms of IC50 values can be obtained, a ratio of IC50 against one mutant relative to another mutant can be calculated. For instance, a selective reduction of K-Ras G12S signaling output can be evidenced by a ratio greater than one. In particular, a selective reduction of K-Ras G12S signaling relative to K-Ras G12D signaling is evidenced as the ratio of IC50 (against K-Ras G12D) to IC50 (against K-Ras G12S) is greater than 1.

A549 cells = assay: Cell proliferation assay (CellTiter-Glo), K-Ras G12S cells; format: cell-based; conditions: Homo sapiens, A549; ≤500 nM; read-out: Inhibition of A549 Cells (IC50)
Description: (§1) A549 (ATCC CRL-185) and LS123 (ATCC CRL-255) cell lines comprise a G12S mutation and can be used to assess Ras cellular signaling in vitro, e.g., in response to the compounds herein. A549 culture medium is prepared with RPMI-1640 and 10% heat-inactivated FBS. LS123 culture medium is prepared with RPMI-1640 and 10% heat-inactivated FBS. A CellTiter-Glo (CTG) luminescent based assay (Promega) is used to assess growth of the cells, as a measurement of the ability of the compounds herein to inhibit Ras signaling in the cells. The cells (e.g., 800 per well) are seeded in their respective culture medium in standard tissue culture-treated 384-well format plates (Falcon #08-772-116) or ultra-low attachment surface 384-well format plates (S-Bio #MS-9384WZ). The day after plating, cells are treated with a dilution series (e.g., a 10 point 3-fold dilution series) of the compounds herein (e.g., approximately 40 μl final volume per well). Cell viability can be monitored (e.g., approximately 6 days later) according to the manufacturer's recommended instructions, where the CellTiter-Glo reagent is added (e.g., approximately 10 μl), vigorously mixed, covered, and placed on a plate shaker (e.g., approximately for 20 min) to ensure sufficient cell lysis prior to assessment of luminescent signal. The IC50 values are determined using the four parameter fit. The resulting IC50 value is a measurement of the ability of the compounds herein to reduce cell growth of Ras-driven cells (e.g., tumor cell lines) in vitro and/or in vivo.

[1] = biological target: T2, KRAS G12D 1-169 (His-tagged, GDP-loaded) (Homo sapiens, UniProt P01116, G12D); assay: Covalent modification of KRAS protein by intact-protein LC-MS; format: binding; conditions: comparable or same conditions as K-Ras G12S
T2 construct: His -tagged GDP-loaded G12D 1-169; made in house; host or cells: E. coli, e.g. BL21 (DE3)
Procedure, shortened: (§2)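 Percent modification is derived from deconvoluted intact-protein LC-ESI-MS peak intensities of adducted versus unmodified KRAS. GDP-loaded His-tagged KRAS 1-169 (~2 μM, HEPES buffer at physiological conditions) was exposed to compound for 24 hrs at room temperature, then quenched with formic acid before C4 reversed-phase separation.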

[2] = biological target: T3, KRAS G12S 1-169 (His-tagged, GDP-loaded) (Homo sapiens, UniProt P01116, G12S); assay: as above; format: binding; conditions: KRAS G12S, 24 hr
T3 construct: His -tagged GDP-loaded G12S 1-169; made in house; host or cells: E. coli, e.g. BL21 (DE3)
Procedure, shortened: as §2

LS123 cells = assay: Cell proliferation assay (CellTiter-Glo), K-Ras G12S cells; format: cell-based; conditions: Comparative Compound A lacking the warhead vs Compound B
Description: as §1

in vitro = conditions: microsomes, pH 7.4
Description: (§3) The metabolic stability of a test compound is assayed at 37° C. using pooled liver microsomes (mouse or human liver microsomes). An aliquot of 10 μL of 50 μM test compound is mixed with 490 μL of 0.611 mg/mL liver microsomes, then 50 μL of the mixtures are dispensed to the 96 well tubes and warmed at 37° C. for 10 minutes. The reactions are initiated by adding 50 μL of the pre-warmed NADPH regeneration system solution (add 1.2 μL solution, 240 μl solution B, mix with 10.56 ml KPBS) and then incubated at 37° C. The final incubation solution contains 100 mM potassium phosphate (pH 7.4), 1.3 mM NADP+, 3.3 mM glucose 6-phosphate, 0.4 Unit/mL of glucose 6-phosphate dehydrogenase, 3.3 mM magnesium chloride, 0.3 mg/mL liver microsomes and 0.5 μM test article. After 0, 15, 30 and 60 minutes in a shaking incubator, the reactions are terminated by adding 100 μL of acetonitrile containing 200 nM buspirone as an internal standard. All incubations are conducted in duplicate. […] Samples are then centrifuged at 3500 rpm for 10 minutes (4° C.) using Sorvall Legend XRT Centrifuge (Thermo Scientific, GE). Supernatants (40 μL) are transferred into clean 96-deep well plates. Each well is added with 160 μL of ultrapure water (Milli-Q, Millipore Corporation) with 0.1% (v/v) formic acid (Fisher Chemical), mixed thoroughly and subjected to LC/MS/MS analysis in MRM positive ionization mode.
(§4) All the samples are measured using a mass spectrometer (QTrap 5500 quadrupole/ion trap) coupled with a Shimadzu HPLC system. The HPLC system consisted of a Shimadzu series degasser, binary quaternary gradient pumps, column heater coupled to an autosampler, and a Phenomenex Gemini-NX, C18, 3.0 μm or Phenomenex Lunar, C8, 5.0 μM HPLC column (Phenomenex, Torrance, CA), and eluted with a mobile phase gradient consisting of Solution A (0.1% formic acid water) and Solution B (0.1% formic acid acetonitrile). The column temperature is maintained at 40° C. All the analytes are detected with positive-mode electrospray ionization (ES+).
(§5) The half-life for the metabolic degradation of the test compound is calculated by plotting the time-course disappearance of the test compound during the incubation with liver microsomes. Each plot is fitted to a first-order equation for the elimination of the test compound (% remaining compound) versus time using non-linear regression (Equation 1).
(§6) where Ct is the mean relative substrate concentration at time t and C0 is the initial concentration (0.5 μM) at time 0. Note that the area ratio of the substrate peak to an internal standard peak is proportional to the analyte concentration and is used for regression analysis to derive a value of k.

[3] = Metabolic (microsomal) stability assay; conditions: pooled liver microsomes, pH 7.4
Description: as §3, §4, §5, §6

covalent labeling of K-Ras G12D [1] | Compound | IC50 (GP2D cells) [nM] | IC50 (A549 cells) [nM] | Compound IC50 Ratio IC50 (Cpd A):IC50 (Cpd B) (LS123 cells) | other results
 | N#Cc1cn(C(=O)N2CC3(CCN(c4nc(OC[C@@]56CCCN5C[C@H](F)C6)nc5c(F)c(-c6ccc(F)c7sc(N)nc67)c(Cl)cc45)CC3)C2)cn1 [Compound A179, 1-(7-(7-(2-amino-7-fluorobenzo-[d]thiazol-4-yl)-6-chloro-8-fluoro-2-(((2R,7aS)-2-fluoro-tetrahydro-1H-pyrrolizin-7a(5H)-yl)methoxy)quinazolin-4-yl)-2,7-diazaspiro[3.5]nonane-2-carbonyl)-1H-imidazole-4-carbonitrile] | 1000 to 10000 |  |  | Ratio of IC50 KRAS G12D vs. IC50 KRAS G12S (K-Ras G12S): A (A: indicates that the ratio of IC50 against KrasG12D vs. IC50 against KrasG12S is 1-fold or greater)
 | Cc1cn(C(=O)N2C3CCC2CN(c2nc(OC[C@@]45CCCN4C[C@H](F)C5)nc4c(F)c(-c5ccc(F)c6sc(N)c(C#N)c56)c(Cl)cc24)C3)nn1 [Compound A189, 2-amino-4-(6-chloro-8-fluoro-2-(((2R,7aS)-2-fluorotetrahydro-1H-pyrrolizin-7a(5H)-yl)meth-oxy)-4-(8-(4-methyl-1H-1,2,3-triazole-1-carbonyl)-3,8-diaza-bicyclo[3.2.1]octan-3-yl)quin-azolin-7-yl)-7-fluorobenzo[b]-thiophene-3-carbonitrile] | ≤ 1000 | ≤ 500 |  | 
essentially no detectable labeling | N#Cc1c(N)sc2c(F)ccc(-c3c(Cl)cc4c(N5CC(F)(F)C6(CN(C(=O)n7cncn7)C6)C5)nc(OC[C@@]56CCCN5C[C@H](F)C6)nc4c3F)c12 [Compound A199, 2-amino-4-(6-chloro-4-(8,8-difluoro-2-(1H-1,2,4-triazole-1-carbonyl)-2,6-diazaspiro[3.4]-octan-6-yl)-8-fluoro-2-(((2R,7aS)-2-fluorotetrahydro-1H-pyrrolizin-7a(5H)-yl)meth-oxy)quinazolin-7-yl)-7-fluoro-benzo[b]thiophene-3-carbonitrile] | 1000 to 10000 | ≤ 500 |  | % G12S Modification at 24 hr. [2]: +++ (+++ indicates greater than 20% labelling)
 | C#Cc1c(F)ccc2cc(O)cc(-c3ccc4c(N5CCCC6(CN(C(=O)n7cncn7)C6)C5)nc(OC[C@@]56CCCN5C[C@H](F)C6)nc4c3F)c12 [Compound A210, (6-(7-(8-ethynyl-7-fluoro-3-hydroxynaphthalen-1-yl)-8-fluoro-2-(((2R,7aS)-2-fluoro-tetrahydro-1H-pyrrolizin-7a(5H)-yl)methoxy)quinazolin-4-yl)-2,6-diazaspiro[3.5]nonan-2-yl)(1H-1,2,4-triazol-1-yl)-methanone] |  |  | >4 (LS123 cells) | 
 | C#Cc1c(F)ccc2cc(O)cc(-c3ncc4c(N5CC6CCC(C5)N6C(=O)n5ccc(C#N)n5)nc(OC[C@@]56CCCN5C[C@H](F)C6)nc4c3F)c12 [Compound A216, 1-(3-(7-(8-ethynyl-7-fluoro-3-hydroxynaphthalen-1-yl)-8-fluoro-2-(((2R,7aS)-2-fluoro-tetrahydro-1H-pyrrolizin-7a(5H)-yl)methoxy)pyrido[4,3-d]pyrimidin-4-yl)-3,8-diaza-bicyclo[3.2.1]octane-8-carbon-yl)-1H-pyrazole-3-carbonitrile] | ≤ 1000 | ≤ 500 |  | half-life at 0.5 μM (in vitro): > 10 min
essentially no detectable labeling | N#Cc1c(N)sc2c(F)ccc(-c3c(Cl)cc4c(N5CCCCC6(CN(C(=O)n7cncn7)C6)C5)nc(OC[C@@]56CCCN5C[C@H](F)C6)nc4c3F)c12 [Compound A295, 4-(4-(2-(1H-1,2,4-triazole-1-carbonyl)-2,6-diazaspiro[3.6]-decan-6-yl)-6-chloro-8-fluoro-2-(((2R,7aS)-2-fluorotetra-hydro-1H-pyrrolizin-7a(5H)-yl)methoxy)quinazolin-7-yl)-2-amino-7-fluorobenzo[b]thio-phene-3-carbonitrile] |  |  | >4 (LS123 cells) | 

Compound | covalent labeling of K-Ras G12D [1] | IC50 (GP2D cells) [nM] | IC50 (A549 cells) [nM] | Compound IC50 Ratio IC50 (Cpd A):IC50 (Cpd B) (LS123 cells) | other results
N#Cc1c(N)sc2c(F)ccc(-c3c(Cl)cc4c(N5CC6(CCCN(C(=O)n7cncn7)C6)C5)nc(OC[C@@]56CCCN5C[C@H](F)C6)nc4c3F)c12 [Compound A266, 4-(4-(6-(1H-1,2,4-triazole-1-carbonyl)-2,6-diazaspiro[3.5]-nonan-2-yl)-6-chloro-8-fluoro-2-(((2R,7aS)-2-fluorotetra-hydro-1H-pyrrolizin-7a(5H)-yl)methoxy)quinazolin-7-yl)-2-amino-7-fluorobenzo[b]thio-phene-3-carbonitrile] | essentially no detectable labeling |  |  | >4 (LS123 cells) | half-life at 0.5 μM [3]: > 10 min
